In patent US20250271426A1, “REDUCTION OF BITTER TASTE OF ACTIVE PHARMACEUTICAL INGREDIENTS AND RELATED ASSAYS AND SCREENING METHODS” (Firmenich Incorporated, priority 2022, published 2025):

Legend:
Assay in all cases: FLIPR calcium assay, cells with promiscuous G protein transfected with bitter receptor cDNA
Type in all cases: cell-based
Conditions in all cases: responsive if cellular response of >10% over baseline, Fluo4-AM
[1] = molecular target: T1, T2R receptor SEQ ID NO: 4 (S4) (Homo sapiens, UniProt Q9NYV8)
T1 construct: expressed in transfected cells; host or cells: cells expressing a promiscuous G protein (e.g., G16g44)
T1 sequence (Q9NYV8 1-317): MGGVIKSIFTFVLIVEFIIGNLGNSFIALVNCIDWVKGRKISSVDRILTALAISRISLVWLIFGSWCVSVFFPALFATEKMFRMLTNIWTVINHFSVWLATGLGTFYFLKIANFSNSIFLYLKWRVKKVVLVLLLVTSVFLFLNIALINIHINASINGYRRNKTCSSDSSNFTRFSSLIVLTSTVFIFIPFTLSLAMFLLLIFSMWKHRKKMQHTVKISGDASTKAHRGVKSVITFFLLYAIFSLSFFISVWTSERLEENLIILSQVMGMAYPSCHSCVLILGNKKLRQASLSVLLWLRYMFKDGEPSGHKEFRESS
Method: (§1) Cells expressing a promiscuous G protein (e.g., G16g44) were transfected with vectors encoding 22 functional bitter receptor cDNAs, with one receptor per transfection. The cells were transfected directly in 384-well format high-density plates and incubated for 28 hours. Later, cells were loaded with the Ca-specific dye Fluo4-AM. After an incubation of 60 minutes, excess dye is washed off, and cells are stimulated with respective bitter agonists while simultaneously recording changes in intracellular fluorescence using a FLIPR instrument.
(§2) The above protocol was carried out using 94 different active pharmaceutical ingredients (APIs) that span a wide range of different APIs having a diversity of chemical structures. A particular T2R receptor was identified as being responsive to a particular API if it triggered a cellular response of >10% over baseline.

[2] = molecular target: T2, T2R receptor SEQ ID NO: 6 (S6) (Homo sapiens, UniProt P59540)
T2 construct: expressed in transfected cells; host or cells: cells expressing a promiscuous G protein (e.g., G16g44)
T2 sequence (P59540 1-309): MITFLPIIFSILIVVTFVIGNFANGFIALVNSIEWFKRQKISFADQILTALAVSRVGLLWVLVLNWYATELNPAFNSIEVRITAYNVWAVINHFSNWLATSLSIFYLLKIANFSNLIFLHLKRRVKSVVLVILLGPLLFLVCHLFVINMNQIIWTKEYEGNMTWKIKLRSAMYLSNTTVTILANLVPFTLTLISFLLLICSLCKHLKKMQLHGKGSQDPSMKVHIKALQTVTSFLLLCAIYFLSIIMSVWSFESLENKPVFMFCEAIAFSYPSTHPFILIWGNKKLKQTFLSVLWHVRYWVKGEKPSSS
Method: as §1, §2

[3] = molecular target: T3, T2R receptor SEQ ID NO: 3 (S3) (Homo sapiens, UniProt Q9NYW0, T156M)
T3 construct: expressed in transfected cells; host or cells: cells expressing a promiscuous G protein (e.g., G16g44)
T3 sequence (Q9NYW0 1-307 T156M): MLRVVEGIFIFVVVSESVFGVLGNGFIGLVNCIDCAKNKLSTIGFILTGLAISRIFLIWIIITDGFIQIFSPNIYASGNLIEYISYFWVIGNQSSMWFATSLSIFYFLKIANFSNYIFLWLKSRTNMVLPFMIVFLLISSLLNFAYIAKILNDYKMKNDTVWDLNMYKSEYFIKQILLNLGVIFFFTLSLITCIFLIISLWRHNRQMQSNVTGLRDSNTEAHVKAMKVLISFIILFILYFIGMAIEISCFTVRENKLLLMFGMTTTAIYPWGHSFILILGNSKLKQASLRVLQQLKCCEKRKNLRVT
Method: as §1, §2

[4] = molecular target: T4, T2R receptor SEQ ID NO: 1 (S1) (Homo sapiens, UniProt Q9NYW7)
T4 construct: expressed in transfected cells; host or cells: cells expressing a promiscuous G protein (e.g., G16g44)
T4 sequence (Q9NYW7 1-299): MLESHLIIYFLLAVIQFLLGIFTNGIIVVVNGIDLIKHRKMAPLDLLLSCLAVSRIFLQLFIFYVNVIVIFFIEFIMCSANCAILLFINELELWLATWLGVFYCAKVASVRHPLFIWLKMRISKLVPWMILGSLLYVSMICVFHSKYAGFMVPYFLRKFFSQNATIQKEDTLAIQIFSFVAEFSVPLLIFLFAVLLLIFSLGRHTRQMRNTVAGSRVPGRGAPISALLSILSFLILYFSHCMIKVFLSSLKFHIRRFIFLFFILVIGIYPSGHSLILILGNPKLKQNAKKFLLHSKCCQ
Method: as §1, §2

| SMILES | S4 positive response of T2R receptor to API [1] | S6 positive response of T2R receptor to API [2] | S3 positive response of T2R receptor to API [3] | further results |
| --- | --- | --- | --- | --- |
| Cc1cccn2c(=O)c(-c3nnn[nH]3)cnc12 [Pemirolast] | + (a “+” to indicate whether a particular T2R receptor showed a positive response to a particular API) | – | – | – |
| CCn1cc(C(=O)O)c(=O)c2cc(F)c(N3CCNCC3)nc21 [Enoxacin] | – | + (a “+” to indicate whether a particular T2R receptor showed a positive response to a particular API) | – | – |
| O=C(O)c1cn(C2CC2)c2cc(N3CCNCC3)c(F)cc2c1=O [Ciprofloxacin] | – | + (a “+” to indicate whether a particular T2R receptor showed a positive response to a particular API) | – | – |
| CN1CCC(C(=O)c2cccc(NC(=O)c3c(F)cc(F)cc3F)n2)CC1 [Lasmitidan] | – | + (a “+” to indicate whether a particular T2R receptor showed a positive response to a particular API) | + (a “+” to indicate whether a particular T2R receptor showed a positive response to a particular API) | – |
| CC1(C)S[C@@H]2[C@H](NC(=O)[C@H](N)c3ccc(O)cc3)C(=O)N2[C@H]1C(=O)O [Amoxicillin] | – | – | – | S1 positive response of T2R receptor to API [4]: + (a “+” to indicate whether a particular T2R receptor showed a positive response to a particular API) |
| CCCC(C)(COC(N)=O)COC(=O)NC(C)C (stereo not drawn) [Carisoprodol] | + (a “+” to indicate whether a particular T2R receptor showed a positive response to a particular API) | – | – | – |
| O=C(O)c1cccnc1Nc1cccc(C(F)(F)F)c1 [Niflumic Acid] | + (a “+” to indicate whether a particular T2R receptor showed a positive response to a particular API) | – | – | – |
| Clc1ccc(COC(Cn2ccnc2)c2ccc(Cl)cc2Cl)c(Cl)c1 (stereo not drawn) [Micronazole] | + (a “+” to indicate whether a particular T2R receptor showed a positive response to a particular API) | – | – | – |
| NS(=O)(=O)c1cc2c(cc1Cl)NCNS2(=O)=O [Hydrochlorothiazide] | – | + (a “+” to indicate whether a particular T2R receptor showed a positive response to a particular API) | + (a “+” to indicate whether a particular T2R receptor showed a positive response to a particular API) | – |
| c1ccc(CC2=NCCN2)cc1 [Tolazoline] | – | + (a “+” to indicate whether a particular T2R receptor showed a positive response to a particular API) | + (a “+” to indicate whether a particular T2R receptor showed a positive response to a particular API) | – |
| CN1CCCC(n2nc(Cc3ccc(Cl)cc3)c3ccccc3c2=O)CC1 (stereo not drawn) [Azelastine] | – | + (a “+” to indicate whether a particular T2R receptor showed a positive response to a particular API) | + (a “+” to indicate whether a particular T2R receptor showed a positive response to a particular API) | – |
| COc1ccc(-n2nc(C(N)=O)c3c2C(=O)N(c2ccc(N4CCCCC4=O)cc2)CC3)cc1 [Apixaban] | – | – | + (a “+” to indicate whether a particular T2R receptor showed a positive response to a particular API) | – |
| CCN1CCN(Cc2ccc(Nc3ncc(F)c(-c4cc(F)c5nc(C)n(C(C)C)c5c4)n3)nc2)CC1 [Abamaciclib] | – | + (a “+” to indicate whether a particular T2R receptor showed a positive response to a particular API) | – | – |
| Cc1cc(NS(=O)(=O)c2ccc(N)cc2)no1 [Sulfamethoxazole] | – | – | – | S1 positive response of T2R receptor to API [4]: + (a “+” to indicate whether a particular T2R receptor showed a positive response to a particular API) |
| Cn1cnc([N+](=O)[O-])c1Sc1ncnc2nc[nH]c12 [Azathioprine] | – | + (a “+” to indicate whether a particular T2R receptor showed a positive response to a particular API) | + (a “+” to indicate whether a particular T2R receptor showed a positive response to a particular API) | – |
| CCC1=C(C)CN(C(=O)NCCc2ccc(S(=O)(=O)NC(=O)N[C@H]3CC[C@H](C)CC3)cc2)C1=O [Glimepiride] | + (a “+” to indicate whether a particular T2R receptor showed a positive response to a particular API) | – | – | – |
| CCN(CC)CC(=O)Nc1c(C)cccc1C [Lidocaine] | + (a “+” to indicate whether a particular T2R receptor showed a positive response to a particular API) | – | + (a “+” to indicate whether a particular T2R receptor showed a positive response to a particular API) | – |
| Cn1c(=O)c2c(ncn2C)n(C)c1=O [Caffeine] | + (a “+” to indicate whether a particular T2R receptor showed a positive response to a particular API) | + (a “+” to indicate whether a particular T2R receptor showed a positive response to a particular API) | + (a “+” to indicate whether a particular T2R receptor showed a positive response to a particular API) | – |
| CCCCc1ncc(/C=C(\Cc2cccs2)C(=O)O)n1Cc1ccc(C(=O)O)cc1 [Eprosartan] | – | – | – | S1 positive response of T2R receptor to API [4]: + (a “+” to indicate whether a particular T2R receptor showed a positive response to a particular API) |
| COc1ccc(Cc2nccc3cc(OC)c(OC)cc23)cc1OC [Papaverine] | + (a “+” to indicate whether a particular T2R receptor showed a positive response to a particular API) | – | + (a “+” to indicate whether a particular T2R receptor showed a positive response to a particular API) | – |
| Nc1ccc(S(=O)(=O)c2ccc(N)cc2)cc1 [Dapsone] | – | – | + (a “+” to indicate whether a particular T2R receptor showed a positive response to a particular API) | – |
| O=C(O)Cc1ccccc1Nc1c(Cl)cccc1Cl [Diclofenac] | + (a “+” to indicate whether a particular T2R receptor showed a positive response to a particular API) | – | – | – |
| Cc1cccc(Nc2ccccc2C(=O)O)c1C [Mefenamic Acid] | + (a “+” to indicate whether a particular T2R receptor showed a positive response to a particular API) | – | – | – |
| COc1ccc(C(CN(C)C)C2(O)CCCCC2)cc1 (stereo not drawn) [Venlafaxine] | – | + (a “+” to indicate whether a particular T2R receptor showed a positive response to a particular API) | + (a “+” to indicate whether a particular T2R receptor showed a positive response to a particular API) | – |
| C=CCC1(C(C)CCC)C(=O)NC(=O)NC1=O (stereo not drawn) [Secobarbital Sodium] | + (a “+” to indicate whether a particular T2R receptor showed a positive response to a particular API) | – | – | – |
| O=C(O)c1ccccc1Nc1cccc(C(F)(F)F)c1 [Flufenamic Acid] | + (a “+” to indicate whether a particular T2R receptor showed a positive response to a particular API) | – | – | – |
| C[C@]12CCC(=O)C=C1CC[C@@H]1[C@@H]2[C@@H](O)C[C@@]2(C)[C@H]1CC[C@]2(O)C(=O)CO [Hydrocortisone] | – | + (a “+” to indicate whether a particular T2R receptor showed a positive response to a particular API) | – | – |
| O=C(CCCN1CCC(O)(c2ccc(Cl)cc2)CC1)c1ccc(F)cc1 [Haloperidol] | + (a “+” to indicate whether a particular T2R receptor showed a positive response to a particular API) | – | + (a “+” to indicate whether a particular T2R receptor showed a positive response to a particular API) | – |
